Experimental data taken from patent publication US8327467B2, “Anthranilic acid derivative or salt thereof” (Toyama Chemical Co., Ltd., priority 2005, dated 2012).
Where a name gives a salt, the structure may show the parent alone.

Test system: MMP-13
Assay: MMP-13 production inhibition test
Format: cell-based
Details: 30 μmol/L; human cartilage derived cell line SW1353, IL-1β 10 ng/mL, 16 hours after stimulation, MMP-13 in culture supernatant by ELISA; read-out: Inhibition rate (%) at 30 μmol/L
Method: MMP-13 Production Inhibition Test
6.8×10^3 human cartilage derived cell line SW1353 cells were suspended in 100 μL of Dulbecco modified Eagle's medium supplemented with 10% fetal calf serum, plated on 96-well plates and cultured for 3 days. After the culture medium was changed to Dulbecco modified Eagle's medium containing 0.2% lactalbumin hydrolysate and the cells were cultured for 6 hours, test compounds were added and then IL-1β was added to obtain the final concentration of 10 ng/mL 1 hour later. 16 hours after the stimulation, supernatant was collected and the amount of MMP-13 in the culture supernatant was determined with an ELISA kit (Amersham). The inhibition rate was calculated from the amount of MMP-13 in the presence of a test compound assuming that the amount of MMP-13 was 100% in the absence of the test compound.

SMILES | inhibition at 30 µM [%]
COc1ccccc1-c1ccc(C(=O)O)c(Nc2ccc(F)cc2)c1 [Example 3, 2-(4-fluoroanilino)-4-(2-methoxyphenyl)benzoic acid] | 53
O=C(O)c1ccc(-c2ccc3c(c2)OCO3)cc1Nc1ccc(F)cc1 [Example 7, 4-(Benzo-1,3-dioxol-5-yl)-2-(4-fluoroanilino)benzoic acid] | 95
COc1ccc(-c2ccc(C(=O)O)c(Nc3ccc(F)cc3)c2)cc1 [Example 9, 2-(4-fluoroanilino)-4-(4-methoxyphenyl)benzoic acid] | 93
CS(=O)(=O)c1ccc(-c2ccc(C(=O)O)c(Nc3ccc(F)cc3)c2)cc1 [Example 11, 2-(4-fluoroanilino)-4-(4-(methanesulfonyl)phenyl)benzoic acid] | 62
CS(=O)(=O)Nc1ccc(-c2ccc(C(=O)O)c(Nc3ccc(F)cc3)c2)cc1 [Example 12, 2-(4-Fluoroanilino)-4-(4-(methanesulfonamido)phenyl)benzoic acid] | 75
O=C(O)c1ccc(-c2ccc3[nH]ccc3c2)cc1Nc1ccc(F)cc1 [Example 13, 2-(4-Fluoroanilino)-4-(1H-indol-5-yl)benzoic acid] | 95
CC(=O)c1ccc(-c2ccc(C(=O)O)c(Nc3ccc(F)cc3)c2)cc1 [Example 15, 4-(4-Acetylphenyl)-2-(4-fluoroanilino)benzoic acid] | 91
O=C(O)c1ccc(-c2ccccc2)cc1Nc1ccc(F)cc1 [Example 37, 2-(4-fluoroanilino)-4-phenylbenzoic acid] | 92
O=C(O)c1ccc(Oc2ccccc2)cc1Nc1ccc2c(c1)OCO2 [Example 43, 2-((Benzo-1,3-dioxol-5-yl)amino)-4-phenoxybenzoic acid] | 93
COc1ccc(Nc2cc(Oc3ccccc3)ccc2C(=O)O)c(OC)c1 [Example 45, 2-(2,4-Dimethoxyanilino)-4-phenoxybenzoic acid] | 73
O=C(O)c1ccc(Oc2ccccc2)cc1Nc1ccccc1 [Example 46, 2-Anilino-4-phenoxybenzoic acid] | 93
O=C(O)c1ccc(Oc2ccccc2)cc1NC1CCCCC1 [Example 48, 2-(cyclohexylamino)-4-phenoxybenzoic acid] | 85
O=C(O)c1ccc(Oc2ccccc2)cc1NCc1ccc(F)cc1 [Example 49, 2-(4-Fluorobenzylamino)-4-phenoxybenzoic acid] | 85
O=C(O)c1ccc(Oc2ccccc2)cc1NCc1ccccc1 [Example 52, 2-(benzylamino)-4-phenoxybenzoic acid] | 77
O=C(O)c1ccc(Nc2ccccc2)cc1Nc1ccc(F)cc1 [Example 63, 4-anilino-2-(4-fluoroanilino)benzoic acid] | 67
O=C(O)c1ccc(NCc2ccccc2)cc1Nc1ccc(F)cc1 [Example 67, 4-(benzylamino)-2-(4-fluoroanilino)benzoic acid] | 67
O=C(O)c1ccc(NCCCc2ccccc2)cc1Nc1ccc(F)cc1 [Example 69, 2-(4-Fluoroanilino)-4-((3-phenylpropyl)amino)benzoic acid] | 94
O=C(O)c1ccc(CCCc2ccccc2)cc1Nc1ccc(F)cc1 [Example 81, 2-(4-fluoroanilino)-4-(3-phenylpropyl)benzoic acid] | 97
O=C(O)c1ccc(NC(=O)c2csc3ccccc23)cc1Nc1ccc(F)cc1 [Example 87, 4-(benzothiophene-3-carboxamido)-2-(4-fluoroanilino)benzoic acid] | 97
O=C(O)c1ccc(NS(=O)(=O)c2ccccc2)cc1Nc1ccc(F)cc1 [Example 91, 4-(Benzenesulfonamido)-2-(4-fluoroanilino)benzoic acid] | 53
O=C(O)c1ccc(/C=C/c2cccc(O)c2)cc1Nc1ccc(F)cc1 [Example 126, 2-(4-fluoroanilino)-4-((E)-2-(3-hydroxyphenyl)vinyl)benzoic acid] | 94
O=C(O)c1ccc(/C=C/c2ccc(F)cc2)cc1Nc1ccc(F)cc1 [Example 132, 2-(4-Fluoroanilino)-4-((E)-2-(4-fluorophenyl)vinyl)benzoic acid] | 95
O=C(O)c1ccc(/C=C/c2ccc3c(c2)OCO3)cc1Nc1ccc(F)cc1 [Example 140, 4-((E)-2-(Benzo-1,3-dioxol-5-yl)vinyl)-2-(4-fluoroanilino)benzoic acid] | 93
COc1ccc(CCc2ccc(C(=O)O)c(Nc3ccc(F)cc3)c2)cc1 [Example 160, 2-(4-Fluoroanilino)-4-(2-(4-methoxyphenyl)ethyl)benzoic acid] | 93

SMILES | inhibition at 30 µM [%]
COc1cccc(CCc2ccc(C(=O)O)c(Nc3ccc(F)cc3)c2)c1 [Example 166, 2-(4-Fluoroanilino)-4-(2-(3-methoxyphenyl)ethyl)benzoic acid] | 92
O=C(O)c1ccc(CCc2ccccc2)cc1Nc1ccccc1C(F)(F)F [Example 169, 4-phenethyl-2-(2-(trifluoromethyl)anilino)benzoic acid] | 97
O=C(O)c1ccc(CCc2ccccc2)cc1Nc1ccc(C(F)(F)F)cc1 [Example 170, 4-Phenethyl-2-(4-(trifluoromethyl)anilino)benzoic acid] | 97
Cc1ccc(Nc2cc(CCc3ccccc3)ccc2C(=O)O)c(C)c1 [Example 172, 2-(2,4-Dimethylanilino)-4-phenethylbenzoic acid] | 97
Cc1cccc(Nc2cc(CCc3ccccc3)ccc2C(=O)O)c1C [Example 173, 2-(2,3-Dimethylanilino)-4-phenethylbenzoic acid] | 97
COc1ccccc1Nc1cc(CCc2ccccc2)ccc1C(=O)O [Example 181, 2-(2-Methoxyanilino)-4-phenethylbenzoic acid] | 97
COc1ccc(Nc2cc(-c3ccccc3)ccc2C(=O)O)cc1 [Example 185, 2-(4-methoxyanilino)-4-phenylbenzoic acid] | 79
O=C(O)c1ccc(-c2ccccc2)cc1Nc1ccc(OC(F)(F)F)cc1 [Example 190, 4-Phenyl-2-(4-(trifluoromethoxy)anilino)benzoic acid] | 97
O=C(O)c1ccc(-c2ccccc2)cc1Nc1cccc(OC(F)(F)F)c1 [Example 191, 4-Phenyl-2-(3-(trifluoromethoxy)anilino)benzoic acid] | 97
O=C(O)c1ccc(CCc2ccccc2)cc1Nc1ccccc1OC(F)(F)F [Example 199, 4-Phenethyl-2-(2-(trifluoromethoxy)anilino)benzoic acid] | 97
O=C(O)c1ccc(CCc2ccccc2)cc1Nc1cccc(Cl)c1 [Example 200, 2-(3-chloroanilino)-4-phenethylbenzoic acid] | 97
COc1ccc(-c2ccc(C(=O)O)c(Nc3ccc(F)cc3)c2)cc1OC [Example 209, 4-(3,4-Dimethoxyphenyl)-2-(4-fluoroanilino)benzoic acid] | 82
Cc1ccc(-c2ccc(C(=O)O)c(Nc3ccc(F)cc3)c2)cc1C [Example 214, 4-(3,4-Dimethylphenyl)-2-(4-fluoroanilino)benzoic acid] | 98
O=C(O)c1ccc(-c2ccccc2OC(F)(F)F)cc1Nc1ccc(F)cc1 [Example 220, 2-(4-Fluoroanilino)-4-(2-(trifluoromethoxy)phenyl)benzoic acid] | 98
O=C(O)c1ccc(-c2ccc(OC(F)(F)F)cc2)cc1Nc1ccc(F)cc1 [Example 222, 2-(4-Fluoroanilino)-4-(4-(trifluoromethoxy)phenyl)benzoic acid] | 98
O=C(O)c1ccc(-c2ccc3occc3c2)cc1Nc1ccc(F)cc1 [Example 225, 4-(Benzofuran-5-yl)-2-(4-fluoroanilino)benzoic acid] | 98
O=C(O)c1ccc(-c2cccc3[nH]ccc23)cc1Nc1ccc(F)cc1 [Example 234, 2-(4-fluoroanilino)-4-(1H-indol-4-yl)benzoic acid] | 97
O=C(O)c1ccc(N2CCc3ccccc32)cc1Nc1ccc(F)cc1 [Example 243, 2-(4-fluoroanilino)-4-(indolin-1-yl)benzoic acid] | 97
O=C(O)c1ccc(-n2cnc3ccccc32)cc1Nc1ccc(F)cc1 [Example 248, 4-(1H-benzimidazol-1-yl)-2-(4-fluoroanilino)benzoic acid trifluoroacetate] | 84
Cc1ccc(CCc2ccc(C(=O)O)c(Nc3ccc(F)cc3)c2)cc1 [Example 252, 2-(4-Fluoroanilino)-4-(2-(4-methylphenyl)ethyl)benzoic acid] | 96
O=C(O)c1ccc(CCc2ccc(OC(F)(F)F)cc2)cc1Nc1ccc(F)cc1 [Example 259, 2-(4-fluoroanilino)-4-(2-(4-(trifluoromethoxy)phenyl)ethyl)benzoic acid] | 96
CC(=O)Nc1cccc(CCc2ccc(C(=O)O)c(Nc3ccc(F)cc3)c2)c1 [Example 262, 4-(2-(3-Acetamidophenyl)ethyl)-2-(4-fluoroanilino)benzoic acid] | 80
O=C(O)c1ccc(-c2cccc(Cl)c2)cc1Nc1cccc(O)c1 [Example 271, 4-(3-chlorophenyl)-2-((3-hydroxyphenyl)amino)benzoic acid] | 97
Cc1ccccc1Nc1cc(-c2ccc(NS(C)(=O)=O)cc2)ccc1C(=O)O [Example 273, 4-(4-(methanesulfonamido)phenyl)-2-(2-methylanilino)benzoic acid] | 83
